Experimental data published in article PMC5999544 (Bioorganic & medicinal chemistry letters, 2017).
“Also recorded” adds a separate entry of the source.

What was measured:
[1] = target: T1, ASK1 (Homo sapiens, UniProt Q99683); experiment: ASK1 Alphascreen biochemical assay
T1 sequence (Q99683 1-1374): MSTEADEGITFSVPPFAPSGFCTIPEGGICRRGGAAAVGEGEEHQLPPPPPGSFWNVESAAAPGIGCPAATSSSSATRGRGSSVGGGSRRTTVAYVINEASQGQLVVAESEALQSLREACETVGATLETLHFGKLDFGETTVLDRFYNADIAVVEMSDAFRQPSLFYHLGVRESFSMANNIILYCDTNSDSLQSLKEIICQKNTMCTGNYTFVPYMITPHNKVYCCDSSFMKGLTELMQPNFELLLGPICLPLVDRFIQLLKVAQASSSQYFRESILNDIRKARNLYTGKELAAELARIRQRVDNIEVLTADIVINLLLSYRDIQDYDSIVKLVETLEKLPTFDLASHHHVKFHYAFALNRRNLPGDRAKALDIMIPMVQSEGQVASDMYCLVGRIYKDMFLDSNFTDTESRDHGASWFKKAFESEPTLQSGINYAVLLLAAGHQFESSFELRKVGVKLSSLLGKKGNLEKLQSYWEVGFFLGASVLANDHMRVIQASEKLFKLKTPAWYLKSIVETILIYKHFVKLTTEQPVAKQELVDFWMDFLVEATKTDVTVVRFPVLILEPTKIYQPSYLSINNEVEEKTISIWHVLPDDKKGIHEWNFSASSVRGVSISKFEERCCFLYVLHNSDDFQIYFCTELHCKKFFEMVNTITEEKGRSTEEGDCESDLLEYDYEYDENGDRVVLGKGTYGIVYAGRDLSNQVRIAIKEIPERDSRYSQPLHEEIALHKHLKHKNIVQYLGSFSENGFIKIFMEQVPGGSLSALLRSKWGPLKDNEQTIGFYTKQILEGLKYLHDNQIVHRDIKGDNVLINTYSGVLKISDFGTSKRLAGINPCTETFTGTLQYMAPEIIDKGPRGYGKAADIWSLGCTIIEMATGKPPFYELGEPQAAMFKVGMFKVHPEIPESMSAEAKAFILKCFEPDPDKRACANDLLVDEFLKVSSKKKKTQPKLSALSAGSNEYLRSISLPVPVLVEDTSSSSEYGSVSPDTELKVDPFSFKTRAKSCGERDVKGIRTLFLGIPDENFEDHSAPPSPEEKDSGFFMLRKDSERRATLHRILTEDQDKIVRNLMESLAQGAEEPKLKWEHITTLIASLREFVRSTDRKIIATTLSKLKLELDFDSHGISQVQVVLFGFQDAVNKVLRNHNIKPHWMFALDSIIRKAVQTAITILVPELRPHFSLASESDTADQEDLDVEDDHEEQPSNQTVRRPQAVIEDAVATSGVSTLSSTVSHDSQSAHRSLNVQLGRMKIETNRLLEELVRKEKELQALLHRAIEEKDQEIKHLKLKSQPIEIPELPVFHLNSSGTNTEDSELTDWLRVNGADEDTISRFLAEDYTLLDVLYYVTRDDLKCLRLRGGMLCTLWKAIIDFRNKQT

[2] = target: T1, ASK1; experiment: Enzyme kinetic study, Lineweaver-Burk plot at six ATP concentrations; type: biochemical; conditions: with or without compound
[3] = target: CYP2C9 (Homo sapiens, UniProt P11712); experiment: Cytochrome P450 inhibition assay 2C9; type: in vitro ADME
[4] = system: INS-1e cell line; experiment: TNFα-induced phosphorylation of endogenous MKK6 at Ser207, immunoblot; type: cell-based; conditions: rat INS-1e cells
[5] = target: CYP3A4 (Homo sapiens, UniProt P08684); experiment: Cytochrome P450 inhibition assay 3A4; type: in vitro ADME
Sequence of CYP3A4 (P08684 whole entry): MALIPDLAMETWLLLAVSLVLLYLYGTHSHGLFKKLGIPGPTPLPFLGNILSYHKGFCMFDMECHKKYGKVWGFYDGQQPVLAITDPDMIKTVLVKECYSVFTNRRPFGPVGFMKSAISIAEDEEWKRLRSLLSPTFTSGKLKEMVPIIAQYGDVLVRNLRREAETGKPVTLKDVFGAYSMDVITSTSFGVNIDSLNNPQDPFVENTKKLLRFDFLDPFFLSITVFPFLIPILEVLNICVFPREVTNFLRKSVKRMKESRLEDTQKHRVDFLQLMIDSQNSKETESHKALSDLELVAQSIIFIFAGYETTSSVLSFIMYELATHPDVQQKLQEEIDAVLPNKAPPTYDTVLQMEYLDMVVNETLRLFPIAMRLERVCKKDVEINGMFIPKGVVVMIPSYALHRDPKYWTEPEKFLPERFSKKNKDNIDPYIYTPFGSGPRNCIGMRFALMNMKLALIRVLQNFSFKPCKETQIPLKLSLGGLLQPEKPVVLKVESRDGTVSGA

Sequence of CYP2C9 (P11712 whole entry): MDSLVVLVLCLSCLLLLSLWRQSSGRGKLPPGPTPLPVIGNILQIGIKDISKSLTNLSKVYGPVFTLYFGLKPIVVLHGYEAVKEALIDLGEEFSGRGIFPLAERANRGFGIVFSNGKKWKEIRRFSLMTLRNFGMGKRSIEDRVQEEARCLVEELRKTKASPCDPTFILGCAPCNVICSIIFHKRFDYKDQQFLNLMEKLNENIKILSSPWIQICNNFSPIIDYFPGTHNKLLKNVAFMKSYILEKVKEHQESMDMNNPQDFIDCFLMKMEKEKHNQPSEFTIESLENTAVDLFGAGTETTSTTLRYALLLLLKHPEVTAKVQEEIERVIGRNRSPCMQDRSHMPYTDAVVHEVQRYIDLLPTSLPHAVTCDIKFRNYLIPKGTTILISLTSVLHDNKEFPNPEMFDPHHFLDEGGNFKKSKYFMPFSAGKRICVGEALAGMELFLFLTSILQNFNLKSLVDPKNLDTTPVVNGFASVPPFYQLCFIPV

SMILES	inhibition at 10 µM [3]	inhibition at 10 µM [5]	ASK1 inhibitory activity (in words) [1]	other results
Cn1cc(-c2ccc3nc(Nc4cccc(N(C(=O)C(C)(C)C)c5ccccc5)c4)ncc3c2)cn1 [Compound 29]			did not show improvement in ASK1 activity	
CC(C)(C)C(=O)N(c1ccccc1)c1cccc(Nc2ncc3cc(-c4cn[nH]c4)ccc3n2)c1 [Compound 28]			did not show improvement in ASK1 activity	
CN(C)c1cccc(Nc2nccc(NCCOc3ccccc3)n2)c1 [Compound 3]				fold less active as an ASK1 inhibitor compared to 1 ([1]; 3 versus 1): approximately 250 fold

More lines, main results first:

inhibition at 10 µM [3]	inhibition at 10 µM [5]	SMILES	ASK1 inhibitory activity (in words) [1]	other results
< 20%	< 20%	CC(=O)Nc1cccc(Nc2ncc3ccccc3n2)c1 [Compound 12]	submicromolar inhibitory activities against ASK1	mode of ASK1 inhibition [2]: ATP competitive; TNFα-induced MKK6 ser207 phosphorylation [4]: protects against TNFα-induced MKK6^ser207 phosphorylation; also recorded: reduction of p-MKK6^ser207; fold improvement in potency in comparison to quinazoline 9 ([1]; 12 versus 9): > 10 fold
> 85%	> 85%	CC(=O)Nc1cccc(Nc2ncc3cc(-c4cn[nH]c4)ccc3n2)c1 [Compound 23]	submicromolar inhibitory activities against ASK1	
